Values after ≈ are worked out from the molar mass of the structure shown.
Assays:
Type in all cases: cell-based
[1] = tested on: 4T1 (murine mammary cancer); test: MTT cytotoxicity assay on 4T1 cells; conditions: Mus musculus, 48 hours, read-out: 50% inhibitory concentration
Description: (§1) The human cell lines used were K562 (human erythroleukemia) MCF7 (human breast cancer) and A375 (human melanoma). The murine cell lines used were Mel Rel (murine melanoma) and 4T1 (murine mammary cancer). […] The cell line 4T1 was also maintained with 1 mM of sodium pyruvate (Eurobio, Toulouse, FR). For the assays on normal cells, human mononucleocytes from the venous peripheral blood of healthy donors (PBMC) were obtained, and were separated by centrifugation using a Ficoll-Hypaque density gradient (GE Healthcare Bio-Sciences AB, Bjorkgatan, Uppsala, Sweden). The cytotoxic effect of the combination of the invention on tumor cells and normal cells was evaluated by direct microscopic observation and via assays with MTT (Sigma, Saint Louis Mo., USA). […] The formazan crystals were dissolved with dimethyl sulfoxide (DMSO) and the optical density was measured at 540 nm in a Multiskan MCC/340 machine (Labsystems, Thermo Fisher Scientific, Waltham, USA). The cytotoxic effect of FA-CS was evaluated with MTT on various tumoral cell lines. The […] value on the various cell lines was calculated using the Minitab software. […]

[2] = tested on: K562 (human erythroleukemia); test: MTT cytotoxicity assay on K562 cells; conditions: 48 hours, read-out: 50% inhibitory concentration
Description: as §1

[3] = tested on: MCF7 (human breast cancer); test: MTT cytotoxicity assay on MCF7 cells; conditions: 48 hours, read-out: 50% inhibitory concentration
Description: as §1

A375 (human melanoma) = test: MTT cytotoxicity assay on A375 cells; conditions: A-375, 48 hours, read-out: 50% inhibitory concentration
Description: The human cell lines used were K562 (human erythroleukemia) MCF7 (human breast cancer) and A375 (human melanoma). The murine cell lines used were Mel Rel (murine melanoma) and 4T1 (murine mammary cancer). These cells were maintained in RPMI 1640 medium supplemented with 10% fetal calf serum, 2 mM of L-glutamine, 100 U of penicillin, 100 μg/ml of streptomycin and 0.01 M of HEPES (Eurobio, Toulouse, FR) at 37° C. with 5% CO2 under a humid atmosphere. The cell line 4T1 was also maintained with 1 mM of sodium pyruvate (Eurobio, Toulouse, FR). For the assays on normal cells, human mononucleocytes from the venous peripheral blood of healthy donors (PBMC) were obtained, and were separated by centrifugation using a Ficoll-Hypaque density gradient (GE Healthcare Bio-Sciences AB, Bjorkgatan, Uppsala, Sweden).
The cytotoxic effect of the combination of the invention on tumor cells and normal cells was evaluated by direct microscopic observation and via assays with MTT (Sigma, Saint Louis Mo., USA). […] The formazan crystals were dissolved with dimethyl sulfoxide (DMSO) and the optical density was measured at 540 nm in a Multiskan MCC/340 machine (Labsystems, Thermo Fisher Scientific, Waltham, USA).
The cytotoxic effect of FA-CS was evaluated with MTT on various tumoral cell lines. The […] value on the various cell lines was calculated using the Minitab software. […]

Fibroblasts = test: MTT cytotoxicity assay on fibroblasts; conditions: Fibroblast, read-out: 50% inhibitory concentration

For `O=C(O)c1cc(O)c(O)c(O)c1` [Gallic acid], the IC50 [1] was 96.2 µg/mL, the IC50 [2] was 18.2 ± 0.1 µg/mL and the IC50 [3] was 4.07 ± 0.04 µg/mL.

For `COc1cccc2c1C(=O)c1c(O)c3c(c(O)c1C2=O)C[C@@](O)(C(=O)CO)C[C@@H]3O[C@H]1C[C@H](N)[C@H](O)[C@H](C)O1` [Doxorubicin], the IC50 [1] was 0.5 ± 0.1 µg/mL, the IC50 (A375 (human melanoma)) was 0.02 ± 0.1 µg/mL and the IC50 (Fibroblasts) was 0.4 ± 0.1 µg/mL (≈ 0.736 µM). For the same molecule, the IC50 [2] was 0.2 ± 0.1 µg/mL.

Reference: patent US9931355B2, “Combination of compounds derived from gallic acid for the treatment of cancer” (PONTIFICLA UNIVERSIDAD JAVERIANA, priority 2012, dated 2018)
